Experimental data as given in PubChem BioAssay (NCI).
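A five-concentration, 48-hour dose response in 96-well plates underlies each endpoint, interpolated linearly between surrounding concentrations. Here, GI50 denotes the concentration required for 50% inhibition of growth. The concentration for full growth arrest is given as TGI.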

Key:
Assay in all cases: NCI tumour cell line growth inhibition, 48 h
[1] = tested on: SNB-19 CNS
[2] = tested on: MALME-3M melanoma
[3] = tested on: LOX IMVI melanoma
[4] = tested on: UACC-257 melanoma
[5] = tested on: HL-60(TB) leukemia
[6] = tested on: SNB-75 CNS
[7] = tested on: PC-3 prostate
[8] = tested on: UO-31 renal
[9] = tested on: HCT-15 colon
[10] = tested on: A498 renal
[11] = tested on: SF-539 CNS
[12] = tested on: NCI-H226 lung
[13] = tested on: EKVX NSCLC
[14] = tested on: SK-MEL-2 melanoma
[15] = tested on: OVCAR-4 ovarian
[16] = tested on: ACHN renal
[17] = tested on: BT-549 breast
[18] = tested on: TK-10 renal
[19] = tested on: MDA-MB-231 breast
[20] = tested on: SN12C renal
[21] = tested on: A549 NSCLC
[22] = tested on: HS 578T breast
[23] = tested on: KM12 colon
[24] = tested on: HCT-116 colon
[25] = tested on: RPMI-8226 leukemia
[26] = tested on: SF-268 CNS
[27] = tested on: SF-295 CNS
[28] = tested on: M14 melanoma
[29] = tested on: MDA-MB-435
[30] = tested on: SR leukemia
[31] = tested on: K-562 leukemia
[32] = tested on: RXF 393 renal
[33] = tested on: NCI-H460 lung
[34] = tested on: COLO 205 colon
[35] = tested on: SK-MEL-28 melanoma
[36] = tested on: DU-145 prostate
[37] = tested on: NCI/ADR-RES ovarian
[38] = tested on: CCRF-CEM leukemia
[39] = tested on: SK-MEL-5 melanoma
[40] = tested on: MCF7 breast
[41] = tested on: SK-OV-3 ovarian
[42] = tested on: T-47D breast
[43] = tested on: CAKI-1 renal
[44] = tested on: HOP-92 NSCLC
[45] = tested on: MOLT-4 leukemia
[46] = tested on: NCI-H522 lung
[47] = tested on: UACC-62 melanoma
[48] = tested on: HOP-62 NSCLC
[49] = tested on: SW-620 colon
[50] = tested on: HT29 colon
[51] = tested on: U251 CNS
[52] = tested on: OVCAR-3 ovarian
[53] = tested on: NCI-H23 lung
[54] = tested on: OVCAR-5 ovarian
[55] = tested on: IGROV1 ovarian
[56] = tested on: HCC-2998 colon
[57] = tested on: OVCAR-8 ovarian
[58] = tested on: 786-0 renal

CCOC(=O)c1ccc(N2NC(=O)/C(=C/c3ccc([N+](=O)[O-])o3)C2=O)cc1
GI50 [1]: > 44.8 µM
TGI [1]: > 72.2 µM
GI50 [2]: 15.6 µM
TGI [2]: 35.1 µM
GI50 [3]: 17.7 µM
TGI [3]: 34.4 µM
GI50 [4]: 16 µM
TGI [4]: 30.8 µM
GI50 [5]: 11.7 µM
TGI [5]: 47.4 µM
GI50 [6]: 27.6 µM
TGI [6]: > 51.5 µM
GI50 [7]: 21.3 µM
TGI [7]: 55.8 µM
GI50 [8]: 5.64 µM
TGI [8]: 13.8 µM
GI50 [9]: 13.6 µM
TGI [9]: 31.5 µM
GI50 [10]: > 37 µM
TGI [10]: > 51.6 µM
GI50 [11]: 18.8 µM
TGI [11]: 46 µM
GI50 [12]: > 41 µM
TGI [12]: > 56.5 µM
GI50 [13]: > 37.7 µM
TGI [13]: > 53.1 µM
GI50 [14]: > 40.6 µM
TGI [14]: > 55.4 µM
GI50 [15]: 17 µM
TGI [15]: 30.9 µM
GI50 [16]: 8.27 µM
TGI [16]: 20.8 µM
GI50 [17]: 20.1 µM
TGI [17]: 39.7 µM
GI50 [18]: 9.04 µM
TGI [18]: 23.2 µM
GI50 [19]: 22.5 µM
TGI [19]: 52.9 µM
GI50 [20]: 27.5 µM
TGI [20]: > 55.8 µM
GI50 [21]: > 44.7 µM
TGI [21]: > 60.6 µM
GI50 [22]: > 45.6 µM
TGI [22]: > 75.1 µM
GI50 [23]: > 40.7 µM
TGI [23]: > 55.3 µM
GI50 [24]: 8.37 µM
TGI [24]: 21.4 µM
GI50 [25]: 30.1 µM
TGI [25]: > 96.5 µM
GI50 [26]: 24.2 µM
TGI [26]: > 55.3 µM
GI50 [27]: > 39 µM
TGI [27]: > 56.1 µM
GI50 [28]: 17 µM
TGI [28]: 31.6 µM
GI50 [29]: 15.1 µM
TGI [29]: 33 µM
GI50 [30]: 10.1 µM
TGI [30]: 57.8 µM
GI50 [31]: 9.64 µM
TGI [31]: > 73.3 µM
GI50 [32]: 11.3 µM
TGI [32]: 26 µM
GI50 [33]: > 43.3 µM
TGI [33]: > 60.7 µM
GI50 [34]: 4.06 µM
TGI [34]: 9.46 µM
GI50 [35]: 18.6 µM
TGI [35]: 36 µM
GI50 [36]: 18 µM
TGI [36]: 32.3 µM
GI50 [37]: 25.9 µM
TGI [37]: > 71.8 µM
GI50 [38]: 2 µM
TGI [38]: > 61.6 µM
GI50 [39]: > 40.4 µM
TGI [39]: > 54.9 µM
GI50 [40]: 17.4 µM
TGI [40]: 35.9 µM
GI50 [41]: > 39.4 µM
TGI [41]: > 54.1 µM
GI50 [42]: 8.92 µM
TGI [42]: 33.4 µM
GI50 [43]: 5.76 µM
TGI [43]: 13.6 µM
GI50 [44]: 15.6 µM
TGI [44]: 31.8 µM
GI50 [45]: 11.3 µM
TGI [45]: 53.1 µM
GI50 [46]: 4.18 µM
TGI [46]: 8.53 µM
GI50 [47]: 19.9 µM
TGI [47]: 43 µM
GI50 [48]: 29.9 µM
TGI [48]: > 55.7 µM
GI50 [49]: 4.3 µM
TGI [49]: 9.38 µM
GI50 [50]: 15.8 µM
TGI [50]: 36.2 µM
GI50 [51]: 39.9 µM
TGI [51]: > 66.6 µM
GI50 [52]: 6.82 µM
TGI [52]: 17.1 µM
GI50 [53]: 21 µM
TGI [53]: 52.6 µM
GI50 [54]: 19 µM
TGI [54]: 40.7 µM
GI50 [55]: 20 µM
TGI [55]: 41.4 µM
GI50 [56]: > 41.8 µM
TGI [56]: > 56.5 µM
GI50 [57]: 27.8 µM
TGI [57]: > 64.2 µM
GI50 [58]: 19.1 µM
TGI [58]: 37.3 µM

C[n+]1c2ccccc2c(N=[N+]=[N-])c2ccccc21
TGI [1]: > 10 µM
TGI [2]: > 10 µM
TGI [3]: 7.63 µM
TGI [4]: > 10 µM
TGI [5]: > 10 µM
TGI [7]: > 10 µM
TGI [9]: > 10 µM
TGI [10]: > 10 µM
TGI [11]: > 10 µM
TGI [12]: > 10 µM
TGI [13]: > 10 µM
TGI [14]: > 10 µM
TGI [15]: > 10 µM
TGI [16]: > 10 µM
TGI [17]: > 10 µM
TGI [18]: > 10 µM
TGI [19]: > 10 µM
TGI [20]: > 10 µM
TGI [21]: > 10 µM
TGI [22]: > 10 µM
TGI [23]: > 10 µM
TGI [24]: > 10 µM
TGI [25]: > 10 µM
TGI [26]: > 10 µM
TGI [27]: > 10 µM
TGI [28]: > 10 µM
TGI [29]: > 10 µM
TGI [30]: > 10 µM
TGI [31]: > 10 µM
TGI [32]: > 10 µM
TGI [33]: > 10 µM
TGI [34]: > 10 µM
TGI [35]: > 10 µM
TGI [36]: > 10 µM
TGI [37]: > 10 µM
TGI [38]: > 10 µM
TGI [39]: > 10 µM
TGI [40]: > 10 µM
TGI [41]: > 10 µM
TGI [42]: > 10 µM
TGI [43]: > 10 µM
TGI [45]: > 10 µM
TGI [46]: > 10 µM
TGI [47]: > 10 µM
TGI [48]: > 10 µM
TGI [49]: > 10 µM
TGI [50]: > 10 µM
TGI [51]: > 10 µM
TGI [52]: > 10 µM
TGI [53]: > 10 µM
TGI [54]: > 10 µM
TGI [55]: > 10 µM
TGI [56]: > 10 µM
TGI [57]: > 10 µM
TGI [58]: > 10 µM
